# What was measured:
# [1] = tested on: Lactobacillus casei and Lactococcus lactis subsp. lactis, as bacteria; test: Increase in cell number of bacteria depending on saccharides; format: cell-based; conditions: bacteria in modified MRS medium, FIGS. 1 and 2
# Source text: (§1) Specifically, each of the microorganisms (bacteria, fungi, and yeasts) obtained from Korean Culture Center of Microorganisms (KCCM) was subcultured three or four times in a culture medium (Table 1) by a typical method to enhance activity. Then, the cultured microorganism was inoculated into a culture medium (Table 1), followed by inducing over-cultivation to a concentration of 10^5 CFU/mL or more, thereby obtaining a strain mother liquor (Table 1).
# (§2) In order to compare degrees of inhibition of the growth of microorganisms depending upon the kind of purely added saccharides without a bias due to alcohol and other additives contained in a fermented alcoholic beverage, only the kind of saccharides added to a culture medium for each of the microorganisms was varied and investigated.
# (§3) Specifically, as saccharides of a culture medium suited to each strain, water-containing crystalline glucose (purity 98 wt % or more, CJ Cheiljedang), sucrose (purity 98 wt % or more, CJ Cheiljedang), and crystalline allulose (purity: 98 wt % or more, CJ Cheiljedang) were added to each of the culture medium, thereby preparing a modified culture medium (Tables 2 to 4). […]
# (§4) Thereafter, the measured number of cell colonies was multiplied by a dilution factor, thereby calculating a value of colony forming unit (CFU) per mL of sample.
# [2] = tested on: Saccharomyces cerevisiae and Saccharomyces pastorianus, as yeasts; test: Increase in cell number of yeasts depending on saccharides; format: cell-based; conditions: yeasts in modified YMB medium, FIGS. 8 and 9
# Source text: as §1, §2, §3, §4
smiles,measurement,setting,value
O=C(CO)C(O)C(O)C(O)CO (centres unmarked) [allulose],strain growth (in words),[1],substantially no strain growth was observed
same,strain growth (in words),[2],substantially no strain growth was observed

# Reference: US11708549B2, “Bacterial, fungal, and yeast growth inhibitor containing allulose” (CJ CHEILJEDANG CORPORATION, priority 2016, dated 2023)
